According to patent US9751857B2, “Hepatitis B antiviral agents” (NOVIRA THERAPEUTICS, INC., priority 2011, dated 2017):

Columns and labels:
[1] = target: HBV C150Bo capsid protein (HBV CA protein) (Hepatitis B virus genotype D subtype adw, UniProt P03147, C107A/C48A/C61A/R150C); test: HBV assembly assay (fluorescence quenching in vitro assembly); assay type: biochemical; settings: at 10 μM
[2] = tested on: HBV replication in HepG2-2.2.15 cells; test: Dot-blot assay of HBV replication; assay type: cell-based; settings: Hepatitis B virus, 144 h
Description: Compounds active in the HBV assembly assay are tested for their activity and toxicity in cellular assay. In the first anti-viral assay, the ability of compounds to inhibit HBV replication in an HBV-producing hepatoma cell line using the dot-blot method is evaluated.
Briefly, confluent monolayers of HepG2-2.2.15 cells are incubated with complete medium containing various concentrations of a test compound. Three days later, the culture medium is replaced with fresh medium containing the appropriately diluted test compound. Six days following the initial administration of the test compound, the cell culture supernatant is collected, and cell lysis is performed. The samples are applied onto Nylos membranes and DNA is immobilized to the membrane by UV cross-linking. After pre-hybridization, the HBV probe is added and the hybridization is performed overnight. The membranes are exposed to the Kodak films; antiviral activity is calculated from the reduction in HBV DNA levels (EC50). The EC50 for antiviral activity is calculated from the dose response curves of active compounds.
In the first anti-viral assay, the ability of compounds to inhibit HBV replication in an HBV-producing hepatoma cell line using the dot-blot method was evaluated.
Confluent monolayers of HepG2-2.2.15 cells were incubated with complete medium containing various concentrations of a test compound. Three days later, the culture medium was replaced with fresh medium containing the appropriately diluted test compound. Six days following the initial administration of the test compound, the cell culture supernatant was collected, and cell lysis was performed. The samples were applied onto Nylos membranes and DNA was immobilized to the membrane by UV cross-linking. After pre-hybridization, the HBV probe was added and the hybridization was performed overnight. The membranes were exposed to the Kodak films; antiviral activity was calculated from the reduction in HBV DNA levels (EC50). The EC50 for antiviral activity was calculated from the dose response curves of active compounds. […]

Sequence of HBV C150Bo capsid protein (HBV CA protein) (P03147 1-150 C48A/C61A/C107A/R150C): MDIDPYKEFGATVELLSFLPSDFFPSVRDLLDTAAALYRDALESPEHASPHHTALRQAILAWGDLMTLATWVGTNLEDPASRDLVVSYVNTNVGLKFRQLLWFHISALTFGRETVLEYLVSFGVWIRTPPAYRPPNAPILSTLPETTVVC

SMILES | Activity in HBV assembly assay [1] | inhibition at 10 µM [2] [%]
O=C(Nc1ccc(F)c(Cl)c1)c1cccc(S(=O)(=O)N2CCC(O)(c3cccc(F)c3F)CC2)c1 [compound 775] | + (‘+’ indicates >50% activity at 10 μM) | > 50
O=C(Nc1cc(F)c(F)c(CF)c1)c1cccc(S(=O)(=O)N2CC(O)C2)c1 [compound 803] | + (‘+’ indicates >50% activity at 10 μM) | > 50
O=C(Nc1ccc(F)c(Br)c1)c1cccc(S(=O)(=O)N2CC(O)C(F)C2)c1 (stereo not drawn) [compound 826] | + (‘+’ indicates >50% activity at 10 μM) | > 50
O=C(Nc1ccc(F)c(Br)c1)c1cccc(S(=O)(=O)NC2CCCC2O)c1 (stereo not drawn) [compound 843] | + (‘+’ indicates >50% activity at 10 μM) | > 50
O=C(Nc1ccc(F)c(Cl)c1)c1cc(S(=O)(=O)N2CCC(O)CC2)ccc1F [compound 885] | + (‘+’ indicates >50% activity at 10 μM) | > 50
O=C(Nc1cc(F)c(F)c(F)c1)c1ccc(F)c(S(=O)(=O)N2CCC(O)CC2)c1 [compound 890] | + (‘+’ indicates >50% activity at 10 μM) | > 50
O=C(Nc1cc(F)c(F)c(F)c1)c1ccc(F)c(S(=O)(=O)N2CCC(CCO)CC2)c1 [compound 900] | + (‘+’ indicates >50% activity at 10 μM) | > 50
O=C(Nc1cc(F)c(F)c(F)c1)c1ccc(F)c(S(=O)(=O)N2CC(O)C2)c1 [compound 901] | + (‘+’ indicates >50% activity at 10 μM) | > 50
O=C(Nc1cc(F)c(F)c(F)c1)c1ccc(F)c(S(=O)(=O)N2CCC(O)C2)c1 (stereo not drawn) [compound 903] | + (‘+’ indicates >50% activity at 10 μM) | > 50
O=C(Nc1ccc(F)c(Cl)c1)c1ccc(F)c(S(=O)(=O)N2CCC(CCO)CC2)c1 [compound 914] | + (‘+’ indicates >50% activity at 10 μM) | > 50
O=C(Nc1cc(F)c(F)c(F)c1)c1ccc(F)c(S(=O)(=O)N2CCC(O)(CO)CC2)c1 [compound 916] | + (‘+’ indicates >50% activity at 10 μM) | > 50
COC(=O)c1ccc(C(=O)Nc2cc(F)c(F)c(F)c2)cc1S(=O)(=O)N1CCC(O)CC1 [compound 927] | + (‘+’ indicates >50% activity at 10 μM) | > 50
Cc1ccc(S(=O)(=O)N2CCC(O)CC2)cc1C(=O)Nc1cc(F)c(F)c(F)c1 [compound 928] | + (‘+’ indicates >50% activity at 10 μM) | > 50
O=C(Nc1cc(F)c(F)c(Cl)c1)c1cccc(S(=O)(=O)N2CC(O)C2)c1 [compound 935] | + (‘+’ indicates >50% activity at 10 μM) | > 50
O=C(Nc1ccc(F)c(Cl)c1)c1ccc(F)c(S(=O)(=O)N2CC(O)C2)c1 [compound 953] | + (‘+’ indicates >50% activity at 10 μM) | > 50
O=C(Nc1ccc(F)c(Cl)c1)c1ccc(F)c(S(=O)(=O)NC2CCC(O)C2)c1 (stereo not drawn) [compound 958] | + (‘+’ indicates >50% activity at 10 μM) | > 50
O=C(Nc1ccc(F)c(Br)c1)c1ccc(F)c(S(=O)(=O)NC2CCC(O)C2)c1 (stereo not drawn) [compound 959] | + (‘+’ indicates >50% activity at 10 μM) | > 50
O=C(Nc1ccc(F)c(Cl)c1)c1ccc(Cl)c(S(=O)(=O)NC2CC(O)C2)c1 (stereo not drawn) [compound 1042] | + (‘+’ indicates >50% activity at 10 μM) | > 50

SMILES | Activity in HBV assembly assay [1] | inhibition at 10 µM [2] [%]
O=C(Nc1cc(F)c(F)c(F)c1)c1ccc(Cl)c(S(=O)(=O)N2CCC(O)CC2)c1 [compound 1057] | + (‘+’ indicates >50% activity at 10 μM) | > 50
O=C(Nc1ccc(F)c(Br)c1)c1ccc(Cl)c(S(=O)(=O)N2CCC(CCO)CC2)c1 [compound 1087] | + (‘+’ indicates >50% activity at 10 μM) | > 50
O=C(Nc1ccc(F)c(Br)c1)c1ccc(Cl)c(S(=O)(=O)N2CCC(O)(CO)CC2)c1 [compound 1099] | + (‘+’ indicates >50% activity at 10 μM) | > 50
O=C(Nc1cc(F)c(F)c(F)c1)c1cc(S(=O)(=O)NC2CCCC2O)ccc1Cl (stereo not drawn) [compound 1113] | + (‘+’ indicates >50% activity at 10 μM) | > 50
O=C(Nc1ccc(F)c(Cl)c1)c1cc(S(=O)(=O)NC2CCCC2O)ccc1Cl (stereo not drawn) [compound 1114] | + (‘+’ indicates >50% activity at 10 μM) | > 50
O=C(Nc1cc(F)c(F)c(F)c1)c1cc(S(=O)(=O)NC2CCCCC2O)ccc1Cl (stereo not drawn) [compound 1129] | + (‘+’ indicates >50% activity at 10 μM) | > 50
O=C(Nc1cc(F)c(F)c(F)c1)c1ccc(Cl)c(S(=O)(=O)N2CCC(O)(CO)CC2)c1 [compound 1130] | + (‘+’ indicates >50% activity at 10 μM) | > 50
O=C(Nc1cc(F)c(F)c(F)c1)c1cc(S(=O)(=O)N2CCC(O)CC2)ccc1Cl [compound 1149] | + (‘+’ indicates >50% activity at 10 μM) | > 50
O=C(Nc1cc(F)c(F)c(F)c1)c1cc(S(=O)(=O)N2CC(O)C2)ccc1Cl [compound 1153] | + (‘+’ indicates >50% activity at 10 μM) | > 50
O=C(Nc1ccc(F)c(Cl)c1)c1cccc(S(=O)(=O)NC2CCC(O)C2)c1 (stereo not drawn) [compound 1157] | + (‘+’ indicates >50% activity at 10 μM) | > 50
CC1(O)CCN(S(=O)(=O)c2cc(C(=O)Nc3cc(F)c(F)c(F)c3)ccc2F)CC1 [compound 1161] | + (‘+’ indicates >50% activity at 10 μM) | > 50
O=C(Nc1cc(F)c(F)c(F)c1)c1cc(S(=O)(=O)N2CCC(O)(CO)CC2)ccc1Cl [compound 1189] | + (‘+’ indicates >50% activity at 10 μM) | > 50
O=C(Nc1cc(F)c(F)c(F)c1)c1ccc(F)c(S(=O)(=O)N2CCC(O)C(CF)C2)c1 (stereo not drawn) [compound 1283] | + (‘+’ indicates >50% activity at 10 μM) | > 50
O=C(Nc1ccc(F)c(F)c1)c1cc(S(=O)(=O)N2CCC(O)CC2)c(F)cc1Cl [compound 1338] | + (‘+’ indicates >50% activity at 10 μM) | > 50
O=C(Nc1cc(F)c(F)c(F)c1)c1cc(S(=O)(=O)N2CC(O)C2)c(F)cc1Cl [compound 1339] | + (‘+’ indicates >50% activity at 10 μM) | > 50
CN(CCO)S(=O)(=O)c1cc(C(=O)Nc2ccc(F)c(Cl)c2)c(Cl)cc1F [compound 1345] | + (‘+’ indicates >50% activity at 10 μM) | > 50
O=C(Nc1cc(F)c(F)c(F)c1)c1cc(S(=O)(=O)N2CCC(O)(CO)CC2)c(F)cc1Cl [compound 1379] | + (‘+’ indicates >50% activity at 10 μM) | > 50
O=C(Nc1ccc(F)c(Cl)c1)c1cc(S(=O)(=O)N2CCC(O)(CO)CC2)c(F)cc1Cl [compound 1380] | + (‘+’ indicates >50% activity at 10 μM) | > 50
